{"source": "ChEMBL document CHEMBL4138105", "about": "“LL-37-derived short antimicrobial peptide KR-12-a5 and its d-amino acid substituted analogs with cell selectivity, anti-biofilm activity, synergistic effect with conventional antibiotics, and anti-inflammatory activity” (Eur J Med Chem, 2017)", "key": {"[1]": {"test_system": "Staphylococcus aureus", "assay": "Antibacterial activity against Staphylococcus aureus KCTC 1621 assessed as cytoplasmic membrane depolarization at 2 times MIC by disC3-5 dye based fluorescence assay", "format": "functional, organism-based"}, "[2]": {"test_system": "Staphylococcus aureus", "assay": "Antibacterial activity against Staphylococcus aureus KCTC 1621 assessed as cell membrane disruption at 2 times MIC within 4 mins by Sytox Green dye based fluorescence spectrophotometer assay", "format": "functional, organism-based"}, "[3]": {"test_system": "Enterococcus faecium", "assay": "Antibacterial activity against Vancomycin-resistant Enterococcus faecium ATCC 51559 after 24 hrs", "format": "functional", "details": "ATCC 51559, 24 h"}}, "note": "Calls of active or inactive are those of the source. The rule behind the calls is not given here.", "data": [{"compound": "CC[C@H](C)[C@H](NC(=O)CN)C(=O)NCC(=O)N[C@@H](C)C(=O)N[C@H](C(=O)N[C@@H](CC(C)C)C(=O)N[C@@H](CCCCN)C(=O)N[C@H](C(=O)N[C@@H](CC(C)C)C(=O)N[C@H](C(=O)N[C@H](C(=O)NCC(=O)N[C@@H](CC(C)C)C(=O)N1CCC[C@H]1C(=O)N[C@@H](C)C(=O)N[C@@H](CC(C)C)C(=O)N[C@H](C(=O)N[C@@H](CO)C(=O)N[C@@H](Cc1c[nH]c2ccccc12)C(=O)N[C@H](C(=O)N[C@@H](CCCCN)C(=O)N[C@@H](CCCNC(=N)N)C(=O)N[C@@H](CCCCN)C(=O)N[C@@H](CCCNC(=N)N)C(=O)N[C@@H](CCC(N)=O)C(=O)N[C@@H](CCC(N)=O)C(N)=O)[C@@H](C)CC)[C@@H](C)CC)[C@@H](C)O)[C@@H](C)O)C(C)C)C(C)C", "note": "[MELITTIN]", "values": [{"measurement": "Activity", "setting": "[1]", "result": "Active"}, {"measurement": "Activity", "setting": "[2]", "result": "Active"}, {"measurement": "MIC", "setting": "[3]", "result": 16, "unit": "µM"}]}]}
